Source: patent US9464064B2, “HCV helicase inhibitors and methods of use thereof” (University of Kansas, priority 2011, dated 2016)

Target: T1, HCV NS3 helicase NS3h_1b(con1) (Hepatitis C virus genotype 1b, UniProt Q9WMX2)
T1 construct: truncated C-terminally His-tagged NS3 proteins lacking the N-terminal protease, called NS3h; His-tag (C); made in house
Assay: MBHA screen of NCI mechanistic set library at 20 μM (percent inhibition, compound interference)
Format: biochemical
Conditions: compounds at 20 μM; for Inh. (%) (Inhibition): calculated from Equation 1
Procedure, shortened: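 Molecular beacon-based DNA unwinding assay; compounds screened at 20 μM in triplicate, with DMSO-only negative and 500 nM dT20 positive controls. Fluorescence (ex 643/em 670 nm) was read before and 30 min after adding ATP to 1 mM. Percent inhibition came from the change relative to DMSO controls; interference from pre-ATP fluorescence versus DMSO controls.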

[1] = MBHA with DNA substrate, assay interference calculated with Equation 2
[2] = assay interference calculated with Equation 2 (fluorescence vs DMSO-only controls before ATP)

T1 sequence (Q9WMX2 1192-1657): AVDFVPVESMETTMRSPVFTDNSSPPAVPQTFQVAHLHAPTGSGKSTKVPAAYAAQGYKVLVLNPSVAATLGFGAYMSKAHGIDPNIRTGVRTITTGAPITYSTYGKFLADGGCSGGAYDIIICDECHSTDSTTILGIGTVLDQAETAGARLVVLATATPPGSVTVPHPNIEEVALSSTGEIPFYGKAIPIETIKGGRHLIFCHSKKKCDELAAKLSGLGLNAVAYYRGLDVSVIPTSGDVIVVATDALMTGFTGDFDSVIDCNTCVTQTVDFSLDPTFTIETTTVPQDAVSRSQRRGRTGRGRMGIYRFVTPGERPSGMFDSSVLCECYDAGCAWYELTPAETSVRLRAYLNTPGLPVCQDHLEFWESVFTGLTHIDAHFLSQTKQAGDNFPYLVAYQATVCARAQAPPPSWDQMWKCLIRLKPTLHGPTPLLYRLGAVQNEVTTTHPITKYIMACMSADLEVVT

SMILES | Int.* (Ratio) (Interference) [1] | Inh. (%) (Inhibition) (MBHA with DNA substrate) | Inh. (%) (Inhibition) (MBHA with a DNA substrate) | Int.* (Ratio) (Interference) [2]
CO[C@H](C(=O)[C@@H](O)[C@@H](C)O)[C@@H]1Cc2cc3cc(O[C@H]4C[C@@H](O[C@H]5C[C@@H](O)[C@H](O)[C@@H](C)O5)[C@H](O)[C@@H](C)O4)c(C)c(O)c3c(O)c2C(=O)[C@H]1O[C@H]1C[C@@H](O[C@H]2C[C@@H](O[C@H]3C[C@](C)(O)[C@H](O)[C@@H](C)O3)[C@@H](O)[C@@H](C)O2)[C@H](O)[C@@H](C)O1 [Compound 24559] | 0.91 Ratio | 36.0% |  | 
Cc1cc2nc(C=C(C(F)(F)F)C(F)(F)F)oc2cc1C [Compound 168415] | 0.95 Ratio | 13.3% |  | 
CC(=O)c1ccc(Oc2ccc(/C(C)=N/N=C(N)N)cc2)cc1.O=[N+]([O-])O [Compound 97911] |  |  | 11.5% | 0.95 Ratio
COc1cccc2c1C(=O)c1c(O)c3c(c(O)c1C2=O)C[C@@](O)(C(C)=O)C[C@@H]3O[C@H]1C[C@H](N(Cc2ccccc2)Cc2ccccc2)[C@H](O)[C@H](C)O1.Cl [Compound 268242] | 0.88 Ratio | 30.6% |  | 
CS(=O)(=O)c1nc(N)nc2nc[nH]c12 [Compound 63446] | 0.76 Ratio | 4.3% |  | 
CC[C@@]1(O)C[C@H](O[C@H]2C[C@H](N(C)C)[C@H](O[C@H]3C[C@H](O)[C@H](O[C@H]4C[C@H](O)[C@H](O)[C@H](C)O4)[C@H](C)O3)[C@H](C)O2)c2c(cc3c(c2O)C(=O)c2c(O)ccc(O)c2C3=O)[C@H]1C(=O)OC [Compound 265211] |  |  | 8.9% | 0.82 Ratio
CC(=O)Nc1ccc(-c2nc3ccccc3s2)cc1 [Compound 33006] | 0.89 Ratio | 15.9% |  | 
CO[C@@H](/C(C)=C/C=C/C(C)=C/c1coc(C)n1)[C@@H](C)[C@@H]1C[C@H](O)[C@@]2(C)O[C@@H]2/C=C/[C@@H](C)[C@H]2C[C@H](CC(=O)O2)C[C@@H]2O[C@H]2C(=O)O1 [Compound 332598] | 0.98 Ratio | −11.7% |  | 
CCCCCCCCCc1c(Cl)nc(Cl)nc1Cl [Compound 92510] | 1.00 Ratio | −14.2% |  | 
OC(CN1CCCCC1)c1ccc(/C=C/c2ccc(Cl)cc2)cc1 (centres unmarked) [Compound 26040] | 0.97 Ratio | −17.0% |  | 
Oc1cccc2cccnc12 [Compound 285166] | 0.95 Ratio | −2.2% |  | 
C1CN1c1nc(N2CC2)nc(N2CC2)n1 [Compound 9706] | 0.98 Ratio | −10.9% |  | 
COC(=O)[C@@H]1c2cc3c(c(O)c2[C@@H](OC)C[C@@]1(C)O)C(=O)c1c(O)cc2c(c1C3=O)O[C@@H]1O[C@@]2(C)[C@H](O)[C@@H](N(C)C)[C@@H]1O [Compound 102815] | 0.76 Ratio | −11.4% |  | 
CCN(CC)c1ccc2cc3ccc(=[N+](CC)CC)cc-3oc2c1.[Cl-] [Compound 44690] | 0.66 Ratio | 61.5% |  | 
COC1(O)C(=O)c2ccccc2OC1(OC)c1ccccc1 (centres unmarked) [Compound 95848] |  |  | 7.7% | 0.90 Ratio
CO[C@H]1C[C@@H]2CC[C@@H](C)[C@@](O)(O2)C(=O)C(=O)N2CCCC[C@H]2C(=O)O[C@H]([C@H](C)C[C@@H]2CC[C@@H](O)[C@H](OC)C2)CC(=O)[C@H](C)/C=C(\C)[C@@H](O)[C@@H](OC)C(=O)[C@H](C)C[C@H](C)/C=C/C=C/C=C/1C [Compound 226080] | 0.90 Ratio | −1.0% |  | 
CN1CCCC2C(c3ccccc3)C(C3=NCCCC3)C(c3ccccc3)CC21.Cl (centres unmarked) [Compound 109444] |  |  | 7.2% | 1.01 Ratio
Nc1ccc2c(c1)S(=O)(=O)c1cc(N)ccc1-2 [Compound 13966] | 1.13 Ratio | −14.1% |  | 
C[n+]1ccc(-c2cc[n+](C)cc2)cc1.[Cl-].[Cl-] [Compound 263500] | 1.18 Ratio | −8.7% |  | 
[Cl][Cd][Cl] [Compound 51148] | 0.94 Ratio | 53.4% |  | 
C=C1C(=O)O[C@@H]2C[C@@H](C)[C@@H]3C=CC(=O)[C@@]3(C)[C@@H](O)[C@H]12 [Compound 85236] | 1.20 Ratio | 0.4% |  | 
Cc1cc(C)c(NC(=O)/C=C/c2ccccc2)c(C)c1 [Compound 191384] | 1.07 Ratio | −1.8% |  | 

Other lines, results leading:

Int.* (Ratio) (Interference) [1] | Inh. (%) (Inhibition) (MBHA with DNA substrate) | Inh. (%) (Inhibition) (MBHA with a DNA substrate) | Int.* (Ratio) (Interference) [2] | SMILES
1.06 Ratio | 1.6% |  |  | Clc1cc2nc[nH]c2cc1Cl [Compound 326397]
0.89 Ratio | 28.1% |  |  | COc1ccc(OC)c2nc3c(C(=O)NCCN(C)C)cccc3nc12.Cl [Compound 678917]
 |  | −26.4% | 0.98 Ratio | C/C(=N\Nc1nc2ccccc2s1)c1ccncn1 [Compound 693632]
 |  | −5.2% | 0.93 Ratio | C=CC(=O)N1C/C(=C\c2ccc(Cl)cc2)C(=O)/C(=C/c2ccc(Cl)cc2)C1 [Compound 687849]
1.02 Ratio | −11.7% |  |  | COc1ccc2c(c1[N+](=O)[O-])CC[C@@H]1[C@@H]2CC[C@]2(C)C(=O)CC[C@@H]12 [Compound 321803]
 |  | 11.4% | 0.80 Ratio | COc1cc2oc3cc(=O)cc4oc(-c5ccccc5)cc(c2c2c1CCC(c1ccccc1)O2)c43 (centres unmarked) [Compound 376248]
 |  | −4.1% | 0.71 Ratio | CO[C@@H]1C[C@](C)(O)Cc2cc3c(c(O)c21)C(=O)c1c(O)cc2c(c1C3=O)O[C@@H]1O[C@@]2(C)[C@H](O)[C@@H](N(C)C)[C@@H]1O [Compound 269148]
0.90 Ratio | 14.6% |  |  | CCOC(=O)/C(=C/c1ccc(N(C)C)cc1)N(CC)CC [Compound 643774]
 |  | −3.8% | 1.04 Ratio | CCCN(CCC)C(=S)Sc1nc(C)nc(N2CCN(c3nc(C)nc(SC(=S)N(CCC)CCC)c3[N+](=O)[O-])CC2)c1[N+](=O)[O-] [Compound 675593]
0.97 Ratio | −2.4% |  |  | CC(C)(C)c1ccc(OC2CCO2)cc1 (centres unmarked) [Compound 635975]
0.95 Ratio | −15.9% |  |  | CC(C)C1=C(O)C2=C(C(=O)C1=O)C1(C)CCCC(C)(C)C1CC2O (centres unmarked) [Compound 294577]
 |  | 12.0% | 0.93 Ratio | Fc1cccc(Cl)c1C1SCc2nc3ccccc3n21 (centres unmarked) [Compound 625483]
 |  | −3.7% | 1.08 Ratio | CC[C@H](C)C(=O)O[C@H]1CCC=C2C=C[C@H](C)[C@H](CC[C@@H]3C[C@@H](O)CC(=O)O3)[C@H]21 [Compound 281245]
 |  | −28.9% | 1.06 Ratio | O=C1c2ccccc2C(=O)c2sc(Nc3ccc(Cl)cc3)nc21 [Compound 631529]
0.93 Ratio | −7.3% |  |  | COC(=O)C(=O)C(C(=O)Nc1cccc(C)c1C)C1Sc2ccccc2NC1=O (centres unmarked) [Compound 635833]
 |  | −5.7% | 0.91 Ratio | COc1ccc(/C=C/c2cc(OC)c(OC)c(OC)c2)cc1OP(=O)(O)O [Compound 643812]
 |  | −20.4% | 0.96 Ratio | CC[C@@]1(O)C(=O)OCc2c1cc1n(c2=O)Cc2cc3c(N)cccc3nc2-1 [Compound 629971]
0.96 Ratio | −17.5% |  |  | O=C(Nc1cccc(C(F)(F)F)c1)C(=O)C(C(=O)c1ccc(Cl)c(Cl)c1)C1OC(=O)c2ccccc21 (centres unmarked) [Compound 644794]
0.93 Ratio | 14.5% |  |  | C=C(Cl)C(Cl)(CBr)CCC(Br)C(C)(C)Cl (centres unmarked) [Compound 662825]
0.95 Ratio | 14.3% |  |  | COc1ccc2cccc(C(=N)c3ccc(C)c4c3CCC4)c2c1 [Compound 625590]
 |  | −20.3% | 0.98 Ratio | O=C1c2ccccc2C(=O)C1C(c1ccc([N+](=O)[O-])cc1)C1C(=O)c2ccccc2C1=O [Compound 643148]
 |  | −31.9% | 0.93 Ratio | CCc1cccc(CC)c1NC(=O)C(C#N)C1=C(Cl)C(=O)c2ccccc2C1=O (centres unmarked) [Compound 634503]
0.97 Ratio | 3.2% |  |  | Cc1ccc(NC(=O)c2cc3ccccc3c(N=Nc3ccccc3O)c2O)c(C)c1 [Compound 374898]
 |  | −5.5% | 0.78 Ratio | O=C1C=C(N2CCNCC2)C(=O)c2c(O)ccc(O)c21 [Compound 658144]
 |  | 8.6% | 0.90 Ratio | COc1cc(CC(=O)c2cc3c(cc2-c2ccccc2)OCO3)cc(OC)c1OC [Compound 648419]
 |  | −22.3% | 0.87 Ratio | O=C(OCC12CC3CC(CC(C3)C1)C2)c1ccc(NCc2cc(O)ccc2O)cc1 [Compound 689857]
0.94 Ratio | −14.8% |  |  | O=C1/C(=C/c2ccc([N+](=O)[O-])cc2)Sc2scc(-c3cccc([N+](=O)[O-])c3)[n+]21.[Cl-] [Compound 657598]
